Test [1] has as its system Tn-4h Insect Tissue Culture Cells. In words: Measurement of total cellular sialic acid (colorimetric assay) in Tn-4h insect tissue culture cells. The format is cell-based, Trichoplusia ni. An excerpt: Since substrate levels can affect sialylation, it was hypothesized that the microgravity-mediated sialylation might have resulted from an increase in substrate availability. […] This hypothesis was investigated further by comparing the concentration of sialic acid in cells grown in T-flasks and in HARV bioreactors.

For the next test, the system named is Tn-4h cells. In words: Sialylation of baculovirus-expressed SEAP N-linked glycans, normal phase HPLC of 2-AB-labeled glycans. In kind it is cell-based, Trichoplusia ni. To be noted: normal gravity. As to the method: Once the SEAP protein is purified, the oligosaccharide moieties are cleaved from the glycoprotein with peptide N-glycosidase F (cleaves oligomannose, hybrid and complex oligosaccharides with or without terminal sialic acid residues). The oligosaccharides are then bonded to a fluorophore marker. The labeled sugar can be digested with various glycosidases that cleave specific linkages. The samples are analyzed by HPLC. Normal phase HPLC fractionations are carried out with a 50 mM ammonium phosphate, pH 4.4, and acetonitrile gradient on a Glyco Sep-N column (OGS, Oxford, UK) by a technique being known in the art, and incorporated by reference (Guile et al., 1996; Mattu et al., 1998). The Glyco Sep-N column is capable of resolving both neutral and charged sugar residues based on hydrophilicity (related to the hydrodynamic volume and molecular size). To obtain accurate glucose equivalency values, the GlycoSep-N is calibrated with a 2-aminobenzamide (2-AB) labeled dextran hydrolysate ladder and glucose homopolymers. The 2-AB fluorescence is detected and quantified using a Waters^a 474 Scanning Fluorescence Detector (Waters Corporation, MA) at λex 330 nm and λcm 420 nm using a 16 μl flow cell.
Since substrate levels can affect sialylation, it was hypothesized that the microgravity-mediated sialylation might have resulted from an increase in substrate availability. […]

The next test concerns mammalian (CHO) cells. The conditions noted are these: cited from earlier work.

Consider `CC(=O)N[C@@H]1C(O)O[C@H](CO)[C@@H](O)[C@@H]1O` (stereo partly shown) [ManNAc, N-acetylmannosamine], for which the “change of sialic acid level, infected cells” value in test [1] (addition to culture medium, infected Tn-4h cells) is “not infected cells”. The “change of sialic acid level, uninfected cells” value in test [1] (addition to culture medium, uninfected Tn-4h cells) is “increased the levels of sialic acid in uninfected cells”. The “nMoles Sialic Acid per mg Cell Protein, Infected” value in test [1] (baculovirus infected Tn-4h cells, T-flask, medium supplemented with 5 mM ManNAc) was 98 ± 9 nMoles Sialic Acid per mg Cell Protein. Moreover, the “nMoles Sialic Acid per mg Cell Protein, Uninfected” value in test [1] (uninfected Tn-4h cells, T-flask, medium supplemented with 5 mM ManNAc) is on record as 62 ± 7 nMoles Sialic Acid per mg Cell Protein. The “sialylated SEAP glycans identified” value with Tn-4h cells (5 mM in medium, stationary T-flasks, Tn-4h cells) is given as “five sialylated SEAP glycans were identified”. For the same molecule, in the test with Tn-4h cells (culture media supplemented, insect tissue culture cells), the “induction of complex, sialylated glycans on a secreted human glycoprotein” value was “induced to produce complex, sialylated glycans”. In addition, the effect on sialylation entry with mammalian (CHO) cells is reported as “increase sialylation”.

The record behind these values is US6472175B1, “Sialylation of N-linked glycoproteins in the baculovirus expression vector system” (Boyce Thompson Institute For Plant Research, Inc., priority 1999, dated 2002).
